Reference: patent US20240316073A1, “CANNABIDIOLIC ACID ESTERS FOR TREATING PRADER-WILLI SYNDROME” (EPM (IP), Inc., priority 2021, published 2024)
“Also recorded” adds a separate entry of the source.

How the values were obtained:
[1] = cited from earlier work
DIO mice = assay: Serum biochemistry and hepatic lipid content in HFD-fed obese mice, genotype not distinguished (WT or PWS model); type: in vivo
Text: (§1) The experimental protocol used was approved by the Institutional Animal Care and Use Committee of the Hebrew University, Israel, which is an AAALAC International accredited institute. Male 6-week-old Magel2^null mice and their wild-type littermate controls were maintained under a 12-h light/dark cycle and fed ad libitum. To generate diet-induced obesity, the mice were fed either a high-fat diet (HFD) (60% of calories from fat, 20% from protein, and 20% from carbohydrates; Research Diet, D12492) or a standard laboratory diet (STD, 14% fat, 24% protein, 62% carbohydrates; NIH-31 rodent diet) for 14-16 weeks. Then, HFD-fed obese mice received vehicle (1% Tween80, 4% DMSO, 95% Saline) or CBDA-ME (20 or 40 mg/kg) daily for 28 days by intraperitoneal (ip) injections. Age-matched control mice on STD received vehicle daily.
Blood biochemistry—Serum levels of cholesterol, triglycerides (TG), high-density lipoprotein (HDL), low-density lipoprotein (LDL), glucose, alanine aminotransferase (ALT), aspartate aminotransferase (AST), and alkaline phosphatase (ALP) were determined using the Cobas C-111 chemistry analyzer (Roche, Switzerland). Fasting blood glucose was measured using the Contour glucometer.
Hepatic lipid content—Liver tissues were extracted and their triglyceride and cholesterol contents were determined using the Cobas C-111 chemistry analyzer (Roche, Switzerland) or the EnzyChrom™ Triglyceride assay kit (BioAssay Systems, Hayward CA, USA).
Histopathology—First, 5 μm paraffin-embedded liver sections from 5 animals per group were stained with hematoxylin-eosin staining. Liver images were captured with a Zeiss AxioCam ICc5 color camera (Carl Zeiss AG, Jena, Germany) mounted on a Zeiss Axio Scope.A1 light microscope (Carl Zeiss AG, Jena, Germany) and taken from 10 random 40× fields of each animal.
(§2) Statistical Methods—Results in multiple groups and time-dependent variables were compared by ANOVA followed by Tukey post-hoc test. Significance was set at P<0.05 using the following signs: *P<0.05 relative to STD-Veh; #P<0.05 relative to HFD-Veh; ^P<0.05 relative to HFD-20 mg/kg of CBDA-ME.

rat models = settings: oral ingestion, 1 mg/kg, two rat models; cited from earlier work
Magel2^null mice [2] = assay: Magel2-null mouse model of Prader-Willi Syndrome, HFD-induced obesity, CBDA-ME treatment; type: in vivo
Text: A Magel2-null mice model of Prader-Willi Syndrome was used to examine the effects of CBDA-ME treatment.
as §1
(§3) Body weight was monitored daily. Total body fat and lean masses were determined by EchoMRI-100H™ (Echo Medical Systems LLC, Houston, TX, USA). At weeks 20-22, the mice were euthanized by a cervical dislocation under deep anesthesia. The brain, kidneys, liver, fat pads, pancreas and muscles were removed, and the liver and kidney were also weighed. The samples were either snap-frozen or fixed in buffered 4% formalin. Trunk blood was collected for determining the biochemical parameters.
(§4) Multi-parameter metabolic assessment—Metabolic profile of the mice was assessed by using the Promethion High-Definition Behavioral Phenotyping System (Sable Instruments, Inc., Las Vegas, NV, USA). Data acquisition and instrument control were performed using MetaScreen software version 2.2.18.0, and the obtained raw data were processed using ExpeData version 1.8.4 using an analysis script detailing all aspects of data transformation. Mice with free access to food and water (which were continuously measured) were subjected to a standard 12 h light/12 h dark cycle, which consisted of a 24 h acclimation period followed by 24 h of sampling. Respiratory gases were measured by using the GA-3 gas analyzer (Sable Systems, Inc., Las Vegas, NV, USA) using a pull-mode, negative-pressure system. Air flow was measured and controlled by FR-8 (Sable Systems, Inc., Las Vegas, NV, USA), with a set flow rate of 2000 mL/min. Water vapor was continuously measured and its dilution effect on O2 and CO2 was mathematically compensated. Effective body mass was calculated by ANCOVA. Fat oxidation (FO) and carbohydrate oxidation (CHO) were calculated as FO=1.69×VO2−1.69×VCO2 and CHO=4.57×VCO2−3.23×VO2 and expressed as g/d/kg^eff.Mass. […]
as §2
(§5) The metabolic profile of CBDA-ME was examined in mice with diet-and genetic-induced obesity (DIO, GIO). Male Magel2^null mice and their wild-type littermate controls fed a high-fat diet (HFD) for 14-16 weeks became obese and then started treatment with daily ip injections of vehicle, or CBDA-ME (20 mg/kg/d or 40 mg/kg/d) for 28 days. Age-and sex-matched mice on STD served as controls.

Magel2^null mice [3] = assay: PWS preventive model: Magel2-null mice on standard diet treated for 18 weeks; type: in vivo; settings: STD diet, 20 mg/kg/day IP
Protocol: The aim of the second study was to evaluate whether EPM301 treatment has an impact on body weight gain and adiposity in a mouse model of PWS.
Male 6-week-old Magel2^null mice and their wild-type littermate controls were maintained under a 12-h light/dark cycle and fed ad libitum a standard laboratory diet (STD, 14% fat, 24% protein, 62% carbohydrates; NIH-31 rodent diet).
Magel2^null mice were either treated with EPM301 20 mg/kg/day or with vehicle (1% Tween80, 4% DMSO, 95% Saline). WT siblings were treated with vehicle. All treatments were given for 18 weeks by intraperitoneal (IP) injections.

rats [4] = settings: compared with CBDA, 5-HT1A receptor-dependent; cited from earlier work
rats [5] = settings: compared with CBDA, 5-HT1A receptor-dependent; cited from earlier work; remark: listed apart in the source
WT mice = assay: Wild-type littermate controls with HFD diet-induced obesity, CBDA-ME treatment; type: in vivo
Text: as §1, §3, §4
Glucose tolerance test (ipGTT) and insulin tolerance test (ipITT)-Mice that fasted overnight were injected with glucose (1.5 g/kg, ip), followed by a tail blood collection at 0, 15, 30, 45, 60, 90, and 120 minutes. Blood glucose levels were determined using the Contour glucometer (Bayer, Pittsburgh, PA). The following day, mice underwent fasting for 6 h before receiving insulin (0.75 U/kg, ip; Eli Lilly), and blood glucose levels were determined at the same intervals as above. […]
as §2, §5

[6] = 20 or 40 mg/kg ip, 28 days, more prominent at the higher dose
[7] = HFD-fed obese, 20 or 40 mg/kg/d ip, 28 days

Compound: C=C(C)[C@@H]1CCC(C)=C[C@H]1c1c(O)cc(CCCCC)c(C(=O)O)c1O [CBDA, cannabidiolic acid]
- stability (decarboxylation into CBD enhanced by heat) [1]: relative instability

Compound: C=C(C)C1CCC(C)=C[C@H]1c1c(O)cc(CCCCC)c(C(=O)OC)c1O (some centres unmarked) [CBDA-ME, cannabidiolic acid methyl ester]
- obesity related hepatocellular injury: serum ALT (DIO mice; 40 mg/kg): reduction
- obesity related hepatocellular injury: serum AST (DIO mice; 40 mg/kg): reduction
- serum HDL (DIO mice; 20 or 40 mg/kg ip, 28 days): no effect
- HFD-induced hypercholesterolemia (serum cholesterol) (DIO mice; [6]): reduced
- ratio between HDL-to-LDL (DIO mice; [6]): increased
- serum LDL (DIO mice; [6]): reduced
- ALP levels (DIO mice; HFD): No major changes
- HFD-induced hepatic steatosis (hepatic triglyceride and cholesterol levels, fat vacuoles in the liver) (DIO mice; HFD): attenuated
- anti-depressant effect (rat models): potent anti-depressant effect
- food intake and hyperphagia (Magel2^null mice [2]; HFD): inhibit; also recorded: significantly reduced
- reduced ambulatory activity (Magel2^null mice [2]; HFD): restored
- increased adiposity (Magel2^null mice [2]; [7]): reduced by CBDA-ME in both doses
- overweight (body weight) (Magel2^null mice [2]; [7]): reduced by CBDA-ME in both doses; also recorded: significantly reduced; also recorded: effectively reduced
- insulin sensitivity (ipITT) (Magel2^null mice [2]; HFD, 40 mg/kg): slightly improved
- obesity-induced glucose intolerance (ipGTT) (Magel2^null mice [2]; HFD, 20 or 40 mg/kg): found effective in Magel2^null mice in both doses tested
- fasting blood glucose levels (Magel2^null mice [2]; HFD, chronic treatment): reduced
- carbohydrate oxidation (Magel2^null mice [2]; HFD, indirect calorimetry): downregulating
- fat oxidation (Magel2^null mice [2]; HFD, indirect calorimetry): further upregulating
- change in the body weight versus WT controls and vehicle-treated Magel2^null mice (Magel2^null mice [3]): significantly lower
- fat mass versus WT control mice (Magel2^null mice [3]): similar
- lean mass versus WT control mice (Magel2^null mice [3]): similar
- fat mass versus vehicle-treated Magel2^null mice (Magel2^null mice [3]; listed as EPM301, 20 mg/kg/day): lower fat mass; also recorded: prevented
- lean mass versus vehicle-treated Magel2^null mice (Magel2^null mice [3]; listed as EPM301, 20 mg/kg/day): significantly higher; also recorded: increased lean mass
- weight gain versus vehicle-treated Magel2^null mice (Magel2^null mice [3]; listed as EPM301, 20 mg/kg/day): lower; also recorded: prevented weight gain
- suppressing signs of acute and anticipatory nausea (rats [4]): greater potency than CBDA
- suppressing signs of stress-induced anxiety (rats [5]): greater potency than CBDA
- food intake and hyperphagia (WT mice; HFD): not observed
- reduced ambulatory activity (WT mice; HFD): restored
- increased adiposity (WT mice; [7]): only observed in the higher dose of 40 mg/kg
- overweight (body weight) (WT mice; [7]): only observed in the higher dose of 40 mg/kg; also recorded: only the higher dose was found effective
- insulin sensitivity (ipITT) (WT mice; HFD, 40 mg/kg): slightly improved
- obesity-induced glucose intolerance (ipGTT) (WT mice; HFD, 40 mg/kg): this effect was observed
- lean body mass percentage (WT mice; HFD, 40 mg/kg ip, 28 days): significant increase
- fasting blood glucose levels (WT mice; HFD, chronic treatment): only in Magel2^null mice
- carbohydrate oxidation (WT mice; HFD, indirect calorimetry): upregulated
- utilization of fat (fat oxidation) (WT mice; HFD, indirect calorimetry): downregulated
- parameters measured overall (WT mice; WT DIO mice, 40 mg/kg): improvements in almost all parameters measured
